“Also recorded” adds a separate entry of the source.
Tests used:
[1] = isotonic phosphate buffered saline
[2] = test system: H460 human non-small cell lung cancer
Protocol: The purpose was to establish safe efficacious levels of s.c., b.i.d. administration of OHBEOV for 9 days. The protocol used is as follows. 20 female Scid/Rag-2 mice were randomly divided into 4 groups. Groups were treated as follows. H460 tumor cells were inoculated (50 μl 10^6 cells bilaterally in the posterior dorsal region) as discussed earlier. On day 11 following tumor inoculation, the 9 day treatment began. Vehicle (isotonic phosphate buffer) filtered through 0.22 μm sterile filter (Costar 14066).
Mice were weighed as a group prior to injection in the morning. Injections were s.c. in the neck region distal to the tumor sight and were delivered b.i.d. between 8-9 a.m. and between 4-5 p.m. Tumor volumes were estimated on a daily basis from measurements taken with calipers.

[3] = Plasma glucose levels following acute and b.i.d. dosing (insulin mimetic effect); assay type: in vivo
MDAY-D2 tumors = assay: Tumor efficacy on MDAY-D2 tumors in DBA-2 mice (Example 36); assay type: in vivo, murine tumor cells in DBA-2 mice
Protocol: The protocol used is as follows. 10 DBA-2 mice were randomly divided into 2 groups. Groups were treated as follows. […] Vehicle (isotonic phosphate buffer) was filtered through 0.22 μm sterile filter (Costar 140666).
(§1) The groups were as follows:
(§2) 1) Vehicle control: isotonic phosphate buffer. 300 μl/dose, total of 600 μl/day.
(§3) Treatment continued for a total of nine days. Mice were terminated on day 10 with carbon dioxide. Tumors were removed and weighed following blotting.

[4] = test system: H460 (human non-small cell lung cancer); assay: Efficacy on H460 human non-small cell lung cancer xenograft in SCID-RAG-2 mice (Example 37); assay type: in vivo, human tumor cells in SCID-RAG-2 female mice; conditions: for tumor size reduction (caliper volumes) / reduction of tumor weight relative to control: 500 μg/dose s.c. b.i.d., 9 days; for tumor size reduction (caliper volumes): vs control; for reduction of tumor weight relative to control: day 10
Protocol: A study was undertaken to confirm the efficacy of OHBEOV and O[BEOV]2 using SCID-RAG-2 female mice with implanted human H460 tumors (lung cancer). […] The protocol used was as follows. 15 SKID-RAG-2 mice were randomly divided into 3 groups. Groups were treated as follows. […] Vehicle (isotonic phosphate buffer) was filtered through 0.22 pm sterile filter (Costar 140666).
as §1, §2, §3

[5] = Maximum Tolerated Dose study, s.c. b.i.d. for nine days in DBA-2 mice (Example 33); assay type: in vivo, female mice (DBA-2)
Protocol: A Maximum Tolerated Dose (M.T.D.) study was undertaken to determine a safe tolerable dose for administration of OHBEOV through a parenteral (s.c.) route of administration delivered twice daily (b.i.d.) for nine days in female mice (DBA-2). The protocol was as follows. 14 DBA-2 mice were randomly divided into groups of 2 for a total of 7 groups. Groups were treated as follows. Vehicle (sterile isotonic phosphate buffer, pH 7.2) was filtered through 0.22 pm sterile filter (Costar 140666). OHBEOV was dissolved with gentle heating and stirring for about 20 min.
(§4) 1) Vehicle control: 300 μl/dose for a total of 600 μl/day.
7) 300 μl of 2 mg/mL OHBEOV to be injected for a total of 1200 μg/day.
(§5) Mice were weighed as a group (N=2) prior to injection in the morning. […] Treatment continued for a total of nine days. Groups were observed and weighed daily for 2 weeks following the final treatment and observed for behavioral signs of toxicity i.e. reduced preening, and mobility and organ failure, i.e., weight loss, death. Following this period, mice were terminated with carbon dioxide. Liver, spleen and kidney (and other organs) were weighed and kept for histology if appearance appeared abnormal.

[6] = Maximum Tolerated Dose study, i.v. b.i.d. for nine days in DBA-2 mice (Example 34); assay type: in vivo, female mice (DBA-2)
Protocol: A Maximum Tolerated Dose (M.T.D.) study was undertaken to determine a safe tolerable dose for administration of OHBEOV through an intravenous route of administration delivered twice daily for nine days in female mice (DBA-2). The protocol was as follows. 8 DBA-2 female mice were randomly divided into groups of 2 for a total of 4 groups. Groups were treated as follows. Vehicle (sterile isotonic phosphate buffer, pH 7.2) was filtered through 0.22 μm sterile filter (Costar 140666).
as §4
as §5, with “toxicity, i.e.,” for “toxicity i.e.”, “organs)” for “organs) were”

[7] = test system: Collagen Induced Arthritis; assay: Treatment of collagen induced arthritis (CIA) with BMOV and NAC; assay type: in vivo, rats
Protocol: CIA in rats is a model of chronic inflammatory synovitis with pannus formation, neovascularization, and joint destruction similar to rheumatoid arthritis (RA). After immunization with native collagen type II (CII) in incomplete Freund's adjuvant, 90-100% of genetically susceptible rats reliably develop clinical arthritis within 10 to 14 days.
Arthritis is induced in syngeneic 8 week old female Louvain (LOU) rats by intradermal immunization under ether anaesthesia on Day 0 with 0.5 mg native chick collagen II (CII) (Genzyme, Boston, Mass.) solubilized in 0.1M acetic acid and emulsified in incomplete Freund's adjuvant (IFA) (Difco, Detr, Mich.) (D. E. Trentham et al., J. Exp. Med. 146:857-868, 1977). Onset of clinical arthritis typically develops in 90-100% of control rats 10-12 days post CII immunization.
On day 10 post immunization, arthritis-induced rats are randomized into two groups. Control rats (n=10) receive only an aqueous vehicle at a dose of 100 mg/kg/day s.c. The experimental group (n=10) receives an aqueous vehicle at 100 mg/kg/day s.c., as well as O[BEOV]2 subcutaneously at the appropriate dose.
The severity of clinical arthritis in each limb is scored daily based on an objective integer scale of 0-4 (D. E. Trentham et al., J. Exp. Med. 146:857-868, 1977). A score of 0 indicates an unaffected limb, while a score of 4 represents fulminant erythema and edema involving distal digits. The arthritic index is defined as the sum of its four limb scores. Since CIA typically involves only the hind limbs, an arthritic index of 6 to 8 is considered to represent severe arthritis.
At the end of the study (Day 18-post arthritis onset), hind limb radiographs are obtained. An investigator blinded to the treatment protocol assigns a score to each limb, based on the degree of soft tissue swelling, joint space narrowing, periosteal new bone information, and the presence of erosions and ankylosis (0=normal; 3=maximal joint destruction). The radiographic index is defined as the sum of the limbs.
The humoral immunity is evaluated by collecting rat serum on Day 18 post arthritis onset for measuring anti-CII IgG by an enzyme linked immunosorbent assay (ELISA) (E. Brahn and D. E. Trentham, Cell Immunol. 86:421-428, 1984; E. Brahn and D. E. Trentham, Cell Immunol. 118:491-503, 1989). Antibody titers are normalized against a previously standardised curve and absorbance read at 490 nm at a serum dilution of 1:2500.
Synovium is selected from rats on Day 5 and Day 18-post arthritis onset to study joint morphology using electron microscopy. On Day 18-post arthritis onset, one ankle joint of each arthritic control and O[BEOV]2 -treated rat is removed, critical point dried, and gold sputter-coated for scanning electron microscopy to examine the trochlear surfaces. Conventional transmission electron microscopy is also performed on the articular cartilage of the trochlear surfaces of native, arthritic control, and O[BEOV]2 -treated animals.

IL-1 = assay: Northern blot, synovial IL-1 expression in CIA rats; assay type: in vivo; conditions: vs control group
Text: (§6) Collagenase, stromelysin, and IL-1 mRNA were readily detected in the vehicle control group. When normalized for RNA loading, expression of all three genes was decreased in the animals in the BMOV-treated group compared to the control group.

stromelysin = assay: Northern blot, synovial stromelysin expression in CIA rats; assay type: in vivo; conditions: vs control group
Text: as §6

collagenase = assay: Northern blot, synovial collagenase expression in CIA rats; assay type: in vivo; conditions: vs control group
Text: as §6

synoviocytes = conditions: previously shown; cited from earlier work
proliferating cells = conditions: previous studies; cited from earlier work
non-proliferating cells = conditions: previous studies; cited from earlier work
[8] = test system: drug resistant cell lines; conditions: previous studies; cited from earlier work
[9] = xenograft model of human lung cancer

## CCc1occc(=O)c1[O][V](=[O])([OH])[O]c1c(CC)occc1=O [OHBEOV, Bis(2-ethyl-3-hydroxy-4-pyronato)hydroxyoxovanadium(V)]
[1]
  maximum solubility: 6000 µg/mL
[2]; 600-1000 μg/day s.c., day 10
  dose-response of mean tumor weight: dose-response relationship
[2]; atomic absorption spectroscopy, end of study
  correlation of tumor vanadium with tumor size and dose: strongly correlated
[2]; in vivo
  myelosuppression: no evidence of myelosuppression
  plasma leukocyte count / immune response: no significant changes in plasma leukocyte count
[2]; [9]
  anti-tumor activity: significant dose-dependent anti-tumor activity
  final tumor size reduction: approximately 70%
[3]; acute and b.i.d. dosing
  plasma glucose levels following dosing: decreased following dosing
[3]; following dosing, non-diabetic animals
  plasma glucose level (normoglycemic range): 4 mM
[3]; single and multiple b.i.d. dosing
  time for plasma glucose to return to pre-dosing levels: ≤ 1 h
MDAY-D2 tumors; 500 μg/dose s.c. b.i.d., 9 days, vs control
  tumor size reduction (caliper volumes): significant reduction in tumor size
MDAY-D2 tumors; 500 μg/dose s.c. b.i.d., 9 days, day 10
  reduction of tumor weight relative to control: approximately 70%
MDAY-D2 tumors; murine solid tumor model at maximum tolerated dose, s.c. b.i.d. 9 days
  tumor efficacy: significant tumor efficacy was demonstrated
[4]
  tumor size reduction (caliper volumes): significant reduction in tumor size
  reduction of tumor weight relative to control: approximately 70%
[4]; human lung cancer xenograft at maximum tolerated dose, s.c. b.i.d. 9 days
  tumor efficacy: significant tumor efficacy was demonstrated
[5]; 600 μg/dose s.c., visual inspection
  spleen appearance upon necropsy: enlarged
[5]; b.i.d., s.c. for 9 days
  maximum tolerated dose: 500 µg/day
[5]; doses up to and including 500 μg (1000 μg/day) s.c., 9 day treatment and 14 day follow up
  weight loss: less than 15%
[5]; maximum dose of 600 μg s.c.
  weight loss of one animal terminated: 25%
[5]; per dose, s.c. b.i.d., 9 days, well tolerated
  tolerability (doses up to and including): 500 µg
[5]; s.c.
  weight recovery following termination of treatment: all animals regained their original weight
[5]; s.c., higher doses
  skin lesions at the injection site: some skin lesions were noted
[5]; treatment protocol and dose level used to demonstrate tumor efficacy
  weight loss: less than 15%
[6]; doses up to and including 300 μg (600 μg/day) i.v., 9 day treatment and 14 day follow up
  weight loss: less than 15%
[6]; i.v.
  weight recovery following termination of treatment: all animals regained their original weight
[6]; per dose, i.v. b.i.d., 9 days, well tolerated
  tolerability (doses up to and including): 300 µg

## Cc1occc(=O)c1[O-].Cc1occc(=O)c1[O-].[O]=[V+2] [BMOV, Bis(maltolato)oxovanadium(IV)]
[7]; 10 mg/kg/day
  diarrhoea: not observed
[7]; 15 mg/kg/day on Day 11 post arthritis onset
  diarrhoea: minor diarrhoea
[7]; joints vs control
  cartilage damage (scanning and transmission electron micrographs): little cartilage damage and intact cartilage
[7]; vs control rats
  trochlear surface of articular cartilage: normal trochlear surface
[7]; vs native animal
  articular cartilage ultrastructure (transmission electron micrographs): indistinguishable from the native animal
IL-1; printed "IL-In", normalized for RNA loading
  inhibition of IL-1 gene expression: 85%
IL-1
  synovial expression of IL-1: to a lesser degree, IL-1, were reduced
stromelysin; normalized for RNA loading
  inhibition of stromelysin gene expression: 58%
stromelysin
  synovial expression of stromelysin: reduced
collagenase; normalized for RNA loading
  inhibition of collagenase gene expression: 78%
collagenase
  synovial expression of collagenase: reduced

## O=S(=O)([O-])[O-].[O]=[V+2] [vanadyl sulphate]
synoviocytes
  cytotoxicity to synoviocytes: cytotoxic to the cells
  synoviocyte proliferation: inhibited synoviocyte proliferation

## CC(=O)N[C@@H](CS)C(=O)O [NAC]
[7]; NAC alone
  arthritis severity: developed severe arthritis; also recorded: no appreciable effect on the clinical severity of CIA

## [O]=[V]([O-])([O-])[O-] [orthovanadate]
Proliferating cells
  effect on proliferating cells: toxic to proliferating cells
non-proliferating cells
  effect on non-proliferating cells: did not affect the non-proliferating cells
[8]
  toxicity to drug resistant cell lines: equally toxic to all the drug resistant cell lines
synoviocytes
  cytotoxicity to synoviocytes: cytotoxic to the cells
  synoviocyte proliferation: inhibited synoviocyte proliferation

## μ-Oxobis[bis(2-ethyl-3-hydroxy-4-pyronato)oxovanadium(V)] [O[BEOV]2]
[4]
  tumor size reduction (caliper volumes): significant reduction in tumor size
  reduction of tumor weight relative to control: approximately 70%

Source: patent US6232340A, “Vanadium complexes and derivatives thereof and methods related thereto” (priority 1998, dated 2001)
